Laboratory results published in US20090124672A1 (priority 2007, published 2009).
Values joined by “and” are separate entries in the source; they are usually repeats but may differ in a detail not shown here. Equal entries are not always repeated. Blank lines part the entries; values can stand above or below the compound they belong to.

Key:
[1] = test system: congenitally anxious Fawn-Hooded (FH) rats; assay: Social interaction test, Fawn Hooded (FH) rat model of anxiety; type: in vivo; conditions: 15 mg/kg i.p., 30 min after injection
Text: (§1) Experienced observers blinded to the experimental conditions carried out the social interaction test in a square open field (60 cm by 60 cm, with 16 15×15 cm squares marked out on the floor). Pairs of rats receiving the same treatment were placed in the arena and the onset of social interactions recorded. This procedure has been validated by previous studies (Overstreet et al. (2002); Overstreet et al. (2003)). Rats were unfamiliar with the open field and lighting conditions were low in order to generate an intermediate level of anxiety-related behavior. Rat pairs matched according to weight and treatment were placed simultaneously in the open field. During the 5-min session, line crosses (by two forepaws) and time spent in social interaction (grooming, sniffing, following) were scored individually for each rat (Kampov-Polevoy et al., 2000; Overstreet et al., 2002, 2003).

[2] = test system: alcohol-withdrawn Sprague-Dawley (SD) rats; assay: Social interaction test, repeated alcohol withdrawal-induced anxiety; type: in vivo, rat
Text: as §1
Ethanol Exposure Studies: Individually housed Sprague-Dawley (SD) rats were given a complete nutritious liquid diet (Knapp et al., 2004; Overstreet et al., 2002) after 5 days to adapt to local conditions. Three days later, most of rats received a 4.5% ethanol liquid diet and others remained on the control liquid diet without ethanol. Rats consumed ethanol for 15 days in three cycles of 5 days each separated by a 2-day withdrawal period between cycles. This design enabled us to test two treatment regimens with Compound A. Acute effects of Compound A (3.75 and 15 mg/kg) were determined 4.5 hr after the 3rd ethanol cycle to allow alcohol washout. The social interaction test was carried out 30 min later.

[3] = test system: SD rats subjected to restraint stress; assay: Social interaction test, restraint-induced stress; type: in vivo, rat; conditions: 15 mg/kg pretreatment
Text: as §1
Restraint-Induced Stress Study: SD rats were injected with either CMC vehicle or 15 mg/kg Compound A in vehicle and subjected to restraint stress in decapicones for one hour. After a 30-min recovery period, the rats were exposed to the open field arena for […] and social interaction and line crosses recorded.

[4] = test system: Sprague-Dawley rats treated with DMCM; assay: Social interaction test, DMCM-induced anxiety; type: in vivo, rat; conditions: 3.75, 7.5 or 15 mg/kg i.p. 15 min before 0.5 mg/kg DMCM
Text: as §1
(§2) Fifteen min later the rats received a second injection of 0.5 mg/kg DMCM (methyl 6,7-demethoxy-4-ethyl-β-carboline-3-carboxylate) or vehicle (acidified saline). The rats were placed in the open field arena 15 min after the second injection for recording social interaction and locomotor activity for 5-min. Approximately one week later the rats were treated with Compound A (3.75, 7.5 or 15 mg/kg). The 5-HT2C agonist mCPP (m-chlorophenylpiperazine; 0.5 mg/kg) or vehicle (saline) was given 15 min later. After another 15 min period, the social interaction and locomotor activity for five min were recorded.

Rats [5] = assay: Example 32 social interaction, line crosses and center entries; type: in vivo, rat; design: Social Interaction, Mean / Social Interaction, individual rat: unit not given here; conditions: 15 mg/kg
Text: (§3) One noninjected rat was included in the control group for water intake.

Rats [6] = assay: Example 32 alcohol, food and water intake; type: in vivo, rat; conditions: 15 mg/kg
Text: as §3

[7] = test system: Sprague-Dawley rats treated with mCPP; assay: Social interaction test, mCPP-induced anxiety; type: in vivo, rat; conditions: 3.75, 7.5 or 15 mg/kg 15 min before 0.5 mg/kg mCPP
Text: as §1, §2

[8] = biological target: T1, hALDH2 (recombinant human mitochondria ALDH) (Homo sapiens, UniProt P05091); assay: ALDH2 inhibition assay (NADH formation, formaldehyde substrate); type: biochemical
T1 sequence (P05091 18-517): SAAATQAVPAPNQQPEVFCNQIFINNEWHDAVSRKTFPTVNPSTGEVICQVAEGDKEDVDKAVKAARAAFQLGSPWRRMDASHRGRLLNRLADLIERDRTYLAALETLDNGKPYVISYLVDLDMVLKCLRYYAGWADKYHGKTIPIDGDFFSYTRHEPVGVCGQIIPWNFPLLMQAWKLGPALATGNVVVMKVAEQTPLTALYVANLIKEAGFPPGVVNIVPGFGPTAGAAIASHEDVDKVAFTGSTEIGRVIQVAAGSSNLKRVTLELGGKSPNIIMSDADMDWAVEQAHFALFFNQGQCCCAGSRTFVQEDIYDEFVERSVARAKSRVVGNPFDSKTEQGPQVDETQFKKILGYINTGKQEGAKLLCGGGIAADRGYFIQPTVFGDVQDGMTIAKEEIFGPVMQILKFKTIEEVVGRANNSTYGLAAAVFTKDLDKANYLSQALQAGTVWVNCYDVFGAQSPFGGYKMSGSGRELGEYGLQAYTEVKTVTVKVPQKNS
Procedure, shortened: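 1 nM enzyme in 50 mM sodium phosphate pH 7.4 with 1.2 mM NAD+ and compound at 0.03–1000 nM; reaction started with 0.15 mM formaldehyde at 25 °C. NADH formation followed by fluorescence (ex 340/em 460 nm). IC50 from sigmoidal fits with floating Hill slope; apparent Ki from Morrison equation if tight binding.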

hMAO-A = biological target: T2, hMAO-A (Homo sapiens, UniProt P21397); assay: MAO-A inhibition assay (Amplex Red, horseradish peroxidase-coupled); type: biochemical
T2 construct: purchased Sigma M7316
T2 sequence (P21397 1-527): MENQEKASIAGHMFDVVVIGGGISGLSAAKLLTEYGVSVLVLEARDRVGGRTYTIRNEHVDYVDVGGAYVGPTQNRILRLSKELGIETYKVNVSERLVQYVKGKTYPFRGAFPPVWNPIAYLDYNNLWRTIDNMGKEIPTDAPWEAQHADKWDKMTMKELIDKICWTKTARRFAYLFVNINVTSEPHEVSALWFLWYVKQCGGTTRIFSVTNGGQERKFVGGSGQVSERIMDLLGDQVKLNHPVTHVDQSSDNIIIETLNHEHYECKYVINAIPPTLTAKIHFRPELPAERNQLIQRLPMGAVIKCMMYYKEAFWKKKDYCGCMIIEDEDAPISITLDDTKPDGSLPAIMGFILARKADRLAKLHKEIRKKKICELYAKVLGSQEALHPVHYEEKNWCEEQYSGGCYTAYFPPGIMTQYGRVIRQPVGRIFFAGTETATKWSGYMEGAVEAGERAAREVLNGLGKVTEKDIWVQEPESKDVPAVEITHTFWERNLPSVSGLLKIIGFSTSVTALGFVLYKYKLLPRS
Method: (§4) MAO-A (Sigma M7316) and MAO-B (Sigma M7441) inhibition assays were conducted in 96-well micro-plates according to the method described by Zhou et al. [Analytical Biochemistry 253, 169-174, 1997]. Both assays were performed in potassium phosphate buffer (0.1 M, pH 7.5) containing 0.5 mM tyramine (Sigma T2879), 0.12 mM N-acetyl-3,7-dihydrophenoxazine (Amplex Red, Invitrogen A12222), 1.2 unit/ml horseradish peroxidase (Sigma P2088), 0.6 unit/ml MAO-A or 2.5 unit/ml MAO-B, and various concentrations of test compounds (0.1 nM to 10 uM). Reactions were initiated by the addition of a pre-mixed solution of tyramine, horseradish peroxidase and Amplex Red, and were allowed to proceed at 37° C. for 30 min. Enzyme activities were determined by measuring absorbance at 570 nm (SpectralMax Plate reader), absorbance of oxidized Amplex Red generated by this horseradish peroxidase-coupled reaction. Nonspecifically formed products were determined in the presence of 2 and 10 µM clorgyline and deprenyl for MAO-A and MAO-B, respectively. IC50 values were determined by fitting concentration-inhibition data to sigmoidal dose-response curves with two-floating parameters: IC50 and Hill coefficient.

hMAO-B = biological target: T3, hMAO-B (Homo sapiens, UniProt P27338); assay: MAO-B inhibition assay (Amplex Red, horseradish peroxidase-coupled); type: biochemical
T3 construct: purchased Sigma M7441
T3 sequence (P27338 1-520): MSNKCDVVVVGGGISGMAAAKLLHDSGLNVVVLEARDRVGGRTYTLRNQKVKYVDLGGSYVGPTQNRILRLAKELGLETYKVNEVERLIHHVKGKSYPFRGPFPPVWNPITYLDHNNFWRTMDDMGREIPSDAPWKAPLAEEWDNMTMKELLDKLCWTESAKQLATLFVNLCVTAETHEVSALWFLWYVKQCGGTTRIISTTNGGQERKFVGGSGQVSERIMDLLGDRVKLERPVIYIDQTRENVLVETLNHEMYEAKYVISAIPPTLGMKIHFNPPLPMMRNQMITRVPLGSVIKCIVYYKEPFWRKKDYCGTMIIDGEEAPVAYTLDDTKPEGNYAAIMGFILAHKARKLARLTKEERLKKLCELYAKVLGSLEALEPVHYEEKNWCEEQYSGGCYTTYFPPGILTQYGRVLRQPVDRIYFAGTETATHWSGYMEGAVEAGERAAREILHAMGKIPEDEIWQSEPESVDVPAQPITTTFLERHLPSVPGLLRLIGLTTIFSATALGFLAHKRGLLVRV
Method: as §4

Syrian golden hamsters = conditions: compared with daidzin; cited from earlier work
[9] = 30 min before test, listed as Comp. A

Structure (SMILES): CS(=O)(=O)Nc1ccc(-c2coc3cc(OCc4cccc(C(=O)O)c4)ccc3c2=O)cc1 [Compound A, 3-[(3-{4-[(methylsulfonyl)amino]phenyl}-4-oxochromen-7-yloxy)methyl]benzoic acid]
locomotor line crossing [1]: did not affect locomotor line crossing | increase in social interaction ([1]; vs vehicle): 2 fold | social interaction behavior, prophylactic treatment ([2]; 3.75-15 mg/kg during 1st and 2nd withdrawals, none after 3rd cycle, tested 5 days after last dose): increased social interaction behavior prophylactically | locomotor activity ([2]; acute treatment after alcohol withdrawal, SD rats): No significant differences | time of social interaction after alcohol withdrawal ([2]; acute, 3.75 and 15 mg/kg injected 30 min before testing, SD rats): increased the time of social interaction | social interaction behavior after alcohol withdrawal ([2]; acute, higher doses, SD rats): completely normalizing the behavior | locomotor activity (line crosses), prophylactic treatment ([2]; compared to vehicle treated rats withdrawn from the alcohol liquid diet): barely significant effect | locomotor activity after restraint stress [3]: no significant | social interaction after restraint stress ([3]; restraint 60 min, 30-min recovery): prevented stress-induced anxiety-like behavior | anxiogenic effects of DMCM (reduced social interaction) [4]: prevented by Compound A in a dose-dependent manner | reduced locomotor activity caused by DMCM [4]: not affected by Compound A, except at 7.5 mg/kg | Center Entries, Mean (Rats [5]; 30 min before test, n=6): 19.3 | Line Crosses, Mean (Rats [5]; 30 min before test, n=6): 109 | Center Entries, individual rat (Rats [5]; [9]): 28 and 25 and 18 and 13 and 26 and 6 | Line Crosses, individual rat (Rats [5]; [9]): 135 and 125 and 84 and 113 and 104 and 90 | Social Interaction, Mean (Rats [5]; 30 min before the social interaction, n=6): 13.3 | Social Interaction, individual rat (Rats [5]; 30 min before the social interaction, listed as Comp. A): 13 and 16 and 14 (2×) and 11 and 12 | activity, in words (Rats [5]; vs vehicle): not activity | social interaction (anxiolytic effect), in words (Rats [5]; vs vehicle): increased social interaction | food intake, in words (Rats [6]): did not affect | water intake, in words (Rats [6]): did not affect | 2 hr Alcohol Intake, Mean (Rats [6]; 2 hr, n=6): 0.2 | 2 hr Alcohol Intake, individual rat (Rats [6]; 2 hr, listed as Comp. A): 0 (2×) and 0.38 (3×) and 0.19 | 4 hr Alcohol Intake, Mean (Rats [6]; 4 hr, n=6): 0.7 | 4 hr Alcohol Intake, individual rat (Rats [6]; 4 hr, listed as Comp. A): 0.88 and 0.4 and 0.76 and 0.95 and 0.38 and 0.57 | 6 hr Alcohol Intake, Mean (Rats [6]; 6 hr, n=6): 1.3 | 6 hr Alcohol Intake, individual rat (Rats [6]; 6 hr, listed as Comp. A): 1.72 and 1.2 and 1.23 and 1.71 and 0.95 and 1 | 24 hr Alcohol Intake, Mean (Rats [6]; 24 hr, n=6): 4.1 | 24 hr Alcohol Intake, individual rat (Rats [6]; 24 hr, listed as Comp. A): 3.2 and 4 and 4.94 and 5.32 and 3.23 and 3.6 | alcohol intake, in words (Rats [6]; from 2-6 hr): reduced alcohol intake | Food Intake, Mean (Rats [6]; n=6): 19.7 | Food Intake, individual rat (Rats [6]; listed as Comp. A): 19 (2×) and 18 and 21 (2×) and 20 | mCPP-induced anxiogenesis (social interaction) [7]: did not prevent mCPP-induced anxiogenesis

IC50 [8]: 0.023 µM | IC50 (hMAO-A): 6.2 µM | inhibition at 10 µM (hMAO-B; at 10 μM, read-out: hMAO-B inhibition (IC50 hMAO-B)): 35%
Structure (SMILES): N#CCOc1ccc2c(=O)c(-c3ccc(O)cc3)coc2c1 [PT-88, 2-[3-(4-hydroxyphenyl)-4-oxochromen-7-yloxy]ethanenitrile]

IC50 [8]: 0.13 µM | IC50 (hMAO-A): 24 µM | IC50 (hMAO-B): 2.3 µM
Structure (SMILES): CCOC(=O)c1ccc(COc2ccc3c(=O)c(-c4ccc(O)cc4)coc3c2)cc1 [PT-34, ethyl 4-{[3-(4-hydroxyphenyl)-4-oxochromen-7-yloxy]methyl}benzoate]

Structure (SMILES): O=c1c(-c2ccc(O)cc2)coc2cc(O)ccc12 [daidzein]
suppressing ethanol uptake (Syrian golden hamsters): effective in suppressing ethanol uptake, but with decreased potency
